What was measured:
[1] = system: HIV-1 infected monocytes (U1); test: ZetaView nanoparticle tracking analysis of EVs released from HIV-1 infected U1 monocytes; type: cell-based; conditions: 5 days; for EV diameter (mean, median, peak): 1, 5, 10 μM or μg/mL, FIG. 8B-D; for release of EVs (EV concentration) / size of the EV (mean size): 1, 5, 20, 50 μM; for release of EVs (EV concentration): FIG. 2A; for size of the EV (mean size): FIG. 2B
Procedure: HIV-1 infected monocytes (U1) were treated with cannabidiol (“CBD”) (1, 5, 20, and 50 μM) or with tetrahydrocannabinol (“THC”) (1, 5, 20, and 50 μM) for 5 days. The supernatants from the treated cells were analyzed by Zeta View Nanoparticle Tracking analysis for changes in concentration. Student's t-test was used to determine significance (***=p<0.001, **=p<0.01, *=p<0.05).
HIV-1 infected monocytes (U1) were treated with cannabidiol (“CBD”) (1, 5, 20, and 50 μM) or with tetrahydrocannabinol (“THC”) (1, 5, 20, and 50 μM) for 5 days. The supernatants from the treated cells were analyzed by Zeta View Nanoparticle Tracking analysis for changes in mean size. Student's t-test was used to determine significance (***=p<0.001, **=p<0.01, *=p<0.05).
FIGS. 8A-8D are graphs showing Cannabis components lower EVs released from HIV-1 infected monocytes. HIV-1 infected U1 monocytic cells (1×10^6) were treated with a titration of CBD (1, 5, and 10 μM) and THC (1, 5, and 10 μg/mL) every day for 5 days. Cells were pelleted and supernatant was used for Zetaview NTA analysis to determine (A) EV concentration, (B) median size, (C) mean size, and (D) peak size. Each bar represents an average of three independent replicates. Student's t-test was used for statistical analysis, where *p-value≤0.05; **p-value≤0.01, ***p-value≤0.001.
HIV-1 infected monocytes (U1) were treated with a titration of CBD (1, 5, 20, and 50 μM) or a titration of THC (1, 5, 20, and 50 μM) for 5 days. Resulting supernatants from the treated cells were analyzed by Zeta View Nanoparticle Tracking analysis for changes in concentration (FIG. 2A) or mean size (FIG. 2B).
NTA was performed with the ZetaView Z-NTA (Particle Metrix) and its software (ZetaView 8.04.02). The machine was calibrated according to manufacturer's protocol. Following the measurement and removal of any outliers from the measured 11 positions, the mean size (diameter; nm) and the concentration of the sample (EV number) were analyzed by the associated ZetaView software. Measurement data from the ZetaView were used to calculate averages and standard deviations from technical triplicates using Microsoft Excel 2016.
Supernatants were harvested and analyzed using ZetaView NTA.
To verify that the observed decrease in EVs was not the result of modifications in packaging of various cargos into larger EVs, the mean diameter size (FIG. 8B), median diameter size (FIG. 8C), and peak diameter size (FIG. 8D) were also analyzed.

cdk9/Cyclin Ti = target: T1, cdk9/Cyclin Ti (Homo sapiens, UniProt P50750); test: Kinase assay: cdk9 immunoprecipitate, phosphorylation of histone H1; type: biochemical; conditions: for phosphorylation of Histone H1: U1, CBD 1 μM, THC 1 μg/mL every day for 5 days, anti-cdk9 IP, FIG. 17 legend
T1 construct: Lysates were immunoprecipitated with 10 μg of cdk9 or IgG antibodies overnight at 4° C; endogenous in cells; host or cells: U1 cells treated with CBD or THC for 5 days, then lysed and immunoprecipitated with anti-cdk9
Procedure: U1 cells (5×10^6) were treated with CBD (1 μM) and THC (1 μg/mL) every day for 5 days. Cells were then lysed, centrifuged and the supernatants (˜150 ug) incubated with anti-cdk9 and IgG antibodies as described in the Kinase Assay section (Materials and Methods), ran on a 4-20% gel and dried, followed by imaging for phosphorylated Histone 1 (p-H1). p-H1 Densitometry counts were calculated on the kinase blot and normalized to background gel pieces.
U1 cells (5×10^6) were treated with CBD (1 μM) and THC 1 μg/mL) every day for 5 d. Cells were pelleted by centrifugation at 15,000×g for 5 minutes, washed with 1×PBS, and lysed in 250 μL lysis buffer. Lysates were immunoprecipitated with 10 μg of cdk9 or IgG antibodies overnight at 4° C., followed by a 2 h incubation with A/G beads at 4° C. IP complexes were washed with TNE50+0.1% NP40 buffer and kinase buffer as described in (Guendel et al., 2014, Novel Neuroprotective GSK-3β Inhibitor Restricts Tat-Mediated HIV-1 Replication. Journal of Virology, 88(2), 1189-1208), followed by 1 h incubation period at 37° C. with γ-^32P ATP and purified histone H1. The samples (50%) were loaded and run through SDS-PAGE on a 4-20% Tris-Glycine gel, followed by staining with Coomassie blue, destain with destain buffer (50% methanol and 10% acetic acid), and dried for 2 h. The dried gels were exposed to a PhosphorImager Cassette, followed by analysis via Molecular Dynamic's ImageQuant Software.
U1 monocytes were treated with CBD (10 μM) and Flavo (50 nM) for short periods (0, 2 and 6 hours) due to the fact that HIV-1 transcription activity is a rapid event that can be scored using chromatin immunoprecipitation (ChIP) assay for factor occupancy. Treated samples were lysed and incubated with IgG control and Pol II (serine 2/5) antibodies for ChIP, followed by qPCR analysis for TAR DNA. […] As expected, there was no change in amount of TAR DNA pulled down with PolII with any treatment compared to the untreated control at 0 hours samples (lanes 1-3).

T1 sequence (P50750 whole entry): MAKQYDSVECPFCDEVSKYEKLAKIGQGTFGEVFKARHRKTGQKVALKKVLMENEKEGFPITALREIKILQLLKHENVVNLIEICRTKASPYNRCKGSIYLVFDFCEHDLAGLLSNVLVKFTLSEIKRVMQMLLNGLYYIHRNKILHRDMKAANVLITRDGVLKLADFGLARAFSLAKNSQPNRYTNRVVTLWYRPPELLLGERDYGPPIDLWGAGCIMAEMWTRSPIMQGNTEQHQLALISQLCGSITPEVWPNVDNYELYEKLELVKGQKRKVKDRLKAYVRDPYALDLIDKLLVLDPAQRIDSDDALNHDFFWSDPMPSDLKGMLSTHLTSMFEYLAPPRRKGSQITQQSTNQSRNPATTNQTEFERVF
T1 sequence (O60563 whole entry partner): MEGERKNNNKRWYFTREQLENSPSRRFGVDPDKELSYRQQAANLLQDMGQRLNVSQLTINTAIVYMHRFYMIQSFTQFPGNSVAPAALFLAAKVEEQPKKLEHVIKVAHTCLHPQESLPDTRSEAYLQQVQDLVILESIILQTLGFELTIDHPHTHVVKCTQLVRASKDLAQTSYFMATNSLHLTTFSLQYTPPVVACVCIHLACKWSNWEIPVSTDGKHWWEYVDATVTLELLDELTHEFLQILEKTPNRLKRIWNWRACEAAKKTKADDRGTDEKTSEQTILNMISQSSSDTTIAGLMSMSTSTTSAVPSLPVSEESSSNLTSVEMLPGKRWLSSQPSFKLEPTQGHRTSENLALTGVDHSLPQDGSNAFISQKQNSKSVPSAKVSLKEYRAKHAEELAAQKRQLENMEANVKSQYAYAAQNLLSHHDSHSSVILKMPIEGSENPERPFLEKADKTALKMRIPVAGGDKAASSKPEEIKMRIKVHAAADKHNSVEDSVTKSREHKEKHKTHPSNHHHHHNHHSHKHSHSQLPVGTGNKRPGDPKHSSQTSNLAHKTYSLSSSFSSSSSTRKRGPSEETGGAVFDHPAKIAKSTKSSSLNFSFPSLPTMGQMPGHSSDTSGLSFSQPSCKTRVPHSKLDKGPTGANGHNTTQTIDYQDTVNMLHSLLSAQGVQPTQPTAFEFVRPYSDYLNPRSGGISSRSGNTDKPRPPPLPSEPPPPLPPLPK

| SMILES | decrease in EVs compared to untreated control ([1]; 1 μM, FIG. 8A lane 2) | decrease in EVs compared to untreated control ([1]; 5 μM, FIG. 8A lane 3) | decrease in EVs compared to untreated control ([1]; 10 μM, FIG. 8A lane 4) | EV diameter (mean, median, peak) [1] | release of EVs (EV concentration) [1] | size of the EV (mean size) [1] | cdk9/Cyclin Ti activity in vitro (cdk9/Cyclin Ti; FIG. 17) | phosphorylation of Histone H1 (cdk9/Cyclin Ti) | number of EVs released ([1]; 1, 5, 10 μg/mL, FIG. 8A lanes 5-7, less drastic than CBD) |
| --- | --- | --- | --- | --- | --- | --- | --- | --- | --- |
| C=C(C)[C@@H]1CCC(C)=C[C@H]1c1c(O)cc(CCCCC)cc1O [CBD, 2-[1R-3-methyl-6R-(1-methylethenyl)-2-cyclohexen-1-yl]-5-pentyl-1,3-benzenediol] | 44% | 76% | 79% | little to no change in diameter | significantly reduced the release of EVs | without altering the size of the EV | did not inhibit | lower phosphorylation of Histone H1 | – |
| CCCCCc1cc(O)c2c(c1)OC(C)(C)[C@@H]1CCC(C)=C[C@@H]21 [THC, Δ9-tetrahydrocannabinol] | – | – | – | little to no change in diameter | significantly reduced the release of EVs | without altering the size of the EV | – | lower phosphorylation of Histone H1 | significant reduction in the number of EVs |
